As usually defined, the IC50 is the concentration that gives 50% inhibition.

From PMC11167047 (Cell Death Discovery, 2024) come the findings set out here.

SMILES strings stand for the structures.

In test [1] the test system is CLL16 chronic lymphocytic leukemia cells. The following applies: read-out: IC50 (CLL16); primary patient cells, 24 h.
Text: (§2) For chronic lymphocytic leukemia, mononuclear cells were isolated from peripheral blood using a Ficoll gradient (GE Healthcare). Primary cells from other lymphoma entities were isolated as previously described [80]. All cells were cryopreserved after isolation and thawed as previously described [81].
(§3) The resazurin reduction assay, which is also known as AlamarBlue® assay, was used for the determination of cell viability in all cytotoxicity determinations shown in the present work, as previously described [22]. Briefly, cells were seeded at a specific density depending on the incubation time (24 h: 1 × 10^6 cells/ml) in a 96-well plate and incubated with increasing compound concentrations (0.01–30 µM). After the specified treatment time, resazurin (Sigma, #R7017) was added to a final concentration of 40 µM. […] The viability of control cells was set to 100% and all other values were normalized to the control condition, the dose-response curves were then fitted with Prism v7.01 (GraphPad software, La Jolla, CA, USA). The reduction of resazurin to resorufin is proportional to aerobic respiration; therefore, it is used as a measure for the cell viability and cytotoxicity of a tested compound.
The next test has as its system Ramos cells. Kind of test: cell cycle analysis (Nicoletti assay). The test is classed as cell-based, human. The settings on record: 24 h, sublethal dose, with QVD. The procedure:
DNA content during cell cycle and hypodiploid apoptotic nuclei were measured by the method of Nicoletti et al.. […] Hypodiploid nuclei were measured in logarithmic mode for apoptosis determination. Flow-cytometry analysis was performed on an LSRFortessa^TM (Becton, Dickinson, Heidelberg, Germany) and data analysis was performed using FlowJo_V10 (BD Biosciences).

Test [2] relates to 335 wild-type protein kinases. Briefly: kinome screen, selectivity score. It is filed as biochemical. The procedure: The Kinome Screening was performed by Reaction Biology Europe GmbH (http://reactionbiology.com; Freiburg i. Br., Germany). […] A kinase inhibition profile of the three meriolins was determined by measuring residual activity at two concentrations each in single values in 335 wild-type protein kinase assays.
The selectivity score was calculated as: SelectivityScore=Countofdatapoints<50%/(Totalnumberofdatapoints)

In another test the target is T1, TLK2 (Homo sapiens, UniProt Q86UE8).
T1 construct: purchased Reaction Biology Europe GmbH (formerly ProQinase)
T1 sequence (Q86UE8 whole entry): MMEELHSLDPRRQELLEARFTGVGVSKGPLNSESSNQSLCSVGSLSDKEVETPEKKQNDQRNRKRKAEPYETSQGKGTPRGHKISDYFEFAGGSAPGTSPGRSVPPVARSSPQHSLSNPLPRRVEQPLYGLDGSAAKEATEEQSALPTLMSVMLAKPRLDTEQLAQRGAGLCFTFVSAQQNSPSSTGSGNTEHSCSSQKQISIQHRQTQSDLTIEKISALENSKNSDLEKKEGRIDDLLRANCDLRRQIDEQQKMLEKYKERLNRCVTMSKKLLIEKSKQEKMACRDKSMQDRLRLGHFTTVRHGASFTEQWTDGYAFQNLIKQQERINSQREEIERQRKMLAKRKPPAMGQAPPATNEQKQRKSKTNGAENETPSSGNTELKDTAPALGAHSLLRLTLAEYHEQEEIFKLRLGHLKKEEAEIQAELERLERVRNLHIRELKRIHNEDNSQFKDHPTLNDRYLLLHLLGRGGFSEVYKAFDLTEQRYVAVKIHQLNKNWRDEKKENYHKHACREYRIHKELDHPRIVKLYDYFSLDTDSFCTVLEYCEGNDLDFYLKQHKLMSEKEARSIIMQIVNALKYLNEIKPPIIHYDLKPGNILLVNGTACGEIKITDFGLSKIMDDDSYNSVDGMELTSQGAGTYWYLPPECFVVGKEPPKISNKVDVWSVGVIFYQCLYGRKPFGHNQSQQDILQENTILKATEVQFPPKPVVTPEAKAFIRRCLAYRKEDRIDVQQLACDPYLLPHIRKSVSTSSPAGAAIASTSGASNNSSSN
Kind of test: kinome screen (33PanQinase). It is filed as biochemical. The procedure:
(§1) The Kinome Screening was performed by Reaction Biology Europe GmbH (http://reactionbiology.com; Freiburg i. Br., Germany).

The target in a further test is T2, STK25 (Homo sapiens, UniProt O00506).
T2 construct: purchased Reaction Biology Europe GmbH (formerly ProQinase)
T2 sequence (O00506 whole entry): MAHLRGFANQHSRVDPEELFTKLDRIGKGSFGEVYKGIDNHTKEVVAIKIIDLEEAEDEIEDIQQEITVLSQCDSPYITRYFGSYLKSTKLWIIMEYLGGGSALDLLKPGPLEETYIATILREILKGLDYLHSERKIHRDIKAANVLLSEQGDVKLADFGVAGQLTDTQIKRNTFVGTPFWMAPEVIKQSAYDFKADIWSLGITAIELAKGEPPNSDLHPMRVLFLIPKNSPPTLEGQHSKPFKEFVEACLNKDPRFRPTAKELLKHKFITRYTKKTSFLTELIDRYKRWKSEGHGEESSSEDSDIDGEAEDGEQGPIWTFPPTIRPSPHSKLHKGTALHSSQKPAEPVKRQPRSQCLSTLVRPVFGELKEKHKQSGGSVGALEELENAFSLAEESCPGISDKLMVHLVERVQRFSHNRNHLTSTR
Kind of test: kinome screen (33PanQinase). The test is classed as biochemical. The procedure:
as §1

A further test has as its target T3, PLK3 (Homo sapiens, UniProt Q9H4B4).
T3 construct: purchased Reaction Biology Europe GmbH (formerly ProQinase)
Kind of test: kinome screen (33PanQinase). It is filed as biochemical. The method, then: as §1

For another test, the target named is T4, GSG2 (Homo sapiens, UniProt Q8TF76).
T4 construct: purchased Reaction Biology Europe GmbH (formerly ProQinase)
T4 sequence (Q8TF76 1-798): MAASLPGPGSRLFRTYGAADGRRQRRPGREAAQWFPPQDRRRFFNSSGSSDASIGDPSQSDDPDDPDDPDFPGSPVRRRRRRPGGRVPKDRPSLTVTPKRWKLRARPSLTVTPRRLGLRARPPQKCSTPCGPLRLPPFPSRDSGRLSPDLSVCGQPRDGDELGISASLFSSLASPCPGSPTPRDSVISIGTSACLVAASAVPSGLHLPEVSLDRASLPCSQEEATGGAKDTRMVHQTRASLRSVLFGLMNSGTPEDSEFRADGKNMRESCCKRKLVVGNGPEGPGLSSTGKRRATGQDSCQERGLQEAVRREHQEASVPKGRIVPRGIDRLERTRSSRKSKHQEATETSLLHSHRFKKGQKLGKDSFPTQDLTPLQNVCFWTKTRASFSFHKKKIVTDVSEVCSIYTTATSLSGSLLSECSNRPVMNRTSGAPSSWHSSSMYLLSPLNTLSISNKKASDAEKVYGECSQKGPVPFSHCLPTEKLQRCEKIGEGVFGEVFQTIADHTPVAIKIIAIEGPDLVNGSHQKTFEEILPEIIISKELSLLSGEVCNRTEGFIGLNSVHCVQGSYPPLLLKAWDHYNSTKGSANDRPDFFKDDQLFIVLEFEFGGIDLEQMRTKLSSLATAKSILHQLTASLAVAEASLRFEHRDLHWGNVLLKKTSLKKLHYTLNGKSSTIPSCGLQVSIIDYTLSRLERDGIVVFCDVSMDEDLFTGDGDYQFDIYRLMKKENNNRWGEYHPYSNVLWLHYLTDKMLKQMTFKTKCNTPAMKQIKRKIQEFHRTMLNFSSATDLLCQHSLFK
Kind of test: kinome screen (33PanQinase). It is filed as biochemical. The procedure: as §1

The target of a further test is T5, MKNK2 (Homo sapiens, UniProt Q9HBH9).
T5 construct: purchased Reaction Biology Europe GmbH (formerly ProQinase)
T5 sequence (Q9HBH9 whole entry): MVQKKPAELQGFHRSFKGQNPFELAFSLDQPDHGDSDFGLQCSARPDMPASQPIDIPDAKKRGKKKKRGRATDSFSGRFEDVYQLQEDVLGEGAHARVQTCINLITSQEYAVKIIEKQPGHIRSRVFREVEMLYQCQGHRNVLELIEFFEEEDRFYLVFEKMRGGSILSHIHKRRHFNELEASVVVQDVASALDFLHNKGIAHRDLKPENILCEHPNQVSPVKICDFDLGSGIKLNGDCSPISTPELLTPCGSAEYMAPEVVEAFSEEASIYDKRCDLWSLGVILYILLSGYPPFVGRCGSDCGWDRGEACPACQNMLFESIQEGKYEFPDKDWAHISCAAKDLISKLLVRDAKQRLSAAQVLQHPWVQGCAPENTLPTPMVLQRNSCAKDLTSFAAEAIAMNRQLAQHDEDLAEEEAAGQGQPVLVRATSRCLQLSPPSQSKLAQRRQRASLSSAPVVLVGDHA
Briefly: kinome screen (33PanQinase). It is filed as biochemical. The method, then: as §1

The target in a further test is T6, EPHA7 (Homo sapiens, UniProt Q15375).
T6 construct: purchased Reaction Biology Europe GmbH (formerly ProQinase)
T6 sequence (Q15375 28-998): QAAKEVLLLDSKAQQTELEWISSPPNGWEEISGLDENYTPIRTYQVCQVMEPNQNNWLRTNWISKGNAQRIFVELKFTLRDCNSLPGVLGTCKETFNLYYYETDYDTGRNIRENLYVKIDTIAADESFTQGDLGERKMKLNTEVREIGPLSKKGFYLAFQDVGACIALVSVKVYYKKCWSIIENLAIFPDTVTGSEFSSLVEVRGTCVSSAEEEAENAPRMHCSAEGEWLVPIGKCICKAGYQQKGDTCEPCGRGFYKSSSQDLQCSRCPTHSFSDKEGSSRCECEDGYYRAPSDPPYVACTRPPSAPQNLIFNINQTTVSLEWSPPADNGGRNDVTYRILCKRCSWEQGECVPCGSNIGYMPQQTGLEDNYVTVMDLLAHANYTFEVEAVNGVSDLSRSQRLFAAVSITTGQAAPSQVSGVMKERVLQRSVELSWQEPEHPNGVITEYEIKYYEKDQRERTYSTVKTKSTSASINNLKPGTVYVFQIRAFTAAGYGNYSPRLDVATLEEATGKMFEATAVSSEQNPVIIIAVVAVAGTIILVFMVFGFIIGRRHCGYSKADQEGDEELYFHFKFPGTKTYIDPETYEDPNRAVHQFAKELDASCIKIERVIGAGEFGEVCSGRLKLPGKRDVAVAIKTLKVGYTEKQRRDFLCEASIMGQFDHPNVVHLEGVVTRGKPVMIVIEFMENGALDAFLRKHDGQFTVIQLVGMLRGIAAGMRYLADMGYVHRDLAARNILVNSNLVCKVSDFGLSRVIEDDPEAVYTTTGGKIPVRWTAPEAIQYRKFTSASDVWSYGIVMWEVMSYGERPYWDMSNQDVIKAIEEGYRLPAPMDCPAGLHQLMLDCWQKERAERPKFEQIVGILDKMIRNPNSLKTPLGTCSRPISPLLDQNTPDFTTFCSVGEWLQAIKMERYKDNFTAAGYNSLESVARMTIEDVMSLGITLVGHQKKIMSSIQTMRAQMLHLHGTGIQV
Kind of test: kinome screen (33PanQinase). The test is classed as biochemical. The procedure: as §1

Test [3] relates to DLBCL177 diffuse large B cell lymphoma cells. The following applies: read-out: IC50 (DLBCL177); primary patient cells, 24 h.
Text: as §2
The resazurin reduction assay, which is also known as AlamarBlue® assay, was used for the determination of cell viability in all cytotoxicity determinations shown in the present work, as previously described [22]. Briefly, cells were seeded at a specific density depending on the incubation time (24 h: 1 × 10^6 cells/ml) in a 96-well plate and incubated with increasing compound concentrations (0.01–30 µM). After the specified treatment time, resazurin (Sigma, #R7017) was added to a final concentration of 40 µM. […] The viability of control cells was set to 100% and all other values were normalized to the control condition, the dose-response curves were then fitted with Prism v7.01 (GraphPad software, La Jolla, CA, USA).
In a further test the test system is HL60. The settings on record: read-out: IC50 (HL60); cytotoxicity, 24 h.
For another test, the system named is cyclin B1 expression. Briefly: immunoblotting of cyclin B1 in Ramos cells. The following applies: 24 h. The test is classed as cell-based, human. The method, then:
Cells were seeded at a density of 2 × 10^6 cells, treated as specified and harvested by centrifugation at 3000 rpm for 5 min, followed by freezing in liquid nitrogen. The cell pellets were thawed on ice and quick-frozen and defrozen in liquid nitrogen for three times, then lysed on ice in lysis buffer (20 mM Tris-HCl, 150 mM NaCl, 1% v/v Triton X-100, 0.5 mM EDTA, 10 mM NaF, 2.5 mM Na4P2O7, protease inhibitor (Sigma, #P2714)) for 30 min, accompanied by vortexing. Subsequently, centrifugation 13,300 rpm for 15 min purified cell lysates from cell debris. The supernatant was transferred to a new tube and the protein concentration was determined by Bradford assay. The samples were diluted with sample buffer. SDS-Page and Western Blot were conducted in accordance with standard workflows. […] The antibody baths were stored at 4 °C and re-used.
The density of the individual protein band was determined using Image Studio^TM Lite Version 5.2. The density of each protein was divided by the average of all bands of this protein. The ratios of the protein of interest were normalized to the ratio of the respective loading control. To determine the fold change, each normalized ratio was divided by the normalized band of the control line (untreated cells). Fold change is 1 for the control line, n ≥ 2. The results are shown as mean ± standard deviation and were visualized with GraphPad Prism 7.
Background: In western blotting, separated proteins are transferred to a membrane and probed.

The next test concerns HeLa cells. Briefly: EdU incorporation by microscopy. It is filed as cell-based, human. The settings on record: 24 h, non-lethal dose (IC25). The method, then: The EdU-assay, utilizing the EdU-click 488 kit from Baseclick GmbH (#BCK-TCell-FC488) was performed according to manufacturer’s instructions. The EdU-assay is employed to measure the incorporation of 5-ethynyl-2’-deoxyuridine (EdU) into DNA, providing a means to assess cell proliferation. Cell proliferation involves the synthesis of new DNA during the S phase of the cell cycle. When cells are exposed to 5-EdU, they incorporate the compound into their DNA at thymidine bases during S phase. A fluorophore-labeled azide reacts with the incorporated EdU, enabling its detection through microscopy (sigmaaldrich.com). The experimental process involves seeding cells and allowing them to grow to the desired density, applying the indicated treatments, and subsequently adding EdU to the media. After fixation and permeabilization, the EdU detection, along with DAPI-stained nuclei, is carried out using fluorescence microscopy.

The subject of the next test is Jurkat. The settings on record: read-out: IC50 (Jurkat); cytotoxicity, 24 h.

T3 sequence (Q9H4B4 whole entry): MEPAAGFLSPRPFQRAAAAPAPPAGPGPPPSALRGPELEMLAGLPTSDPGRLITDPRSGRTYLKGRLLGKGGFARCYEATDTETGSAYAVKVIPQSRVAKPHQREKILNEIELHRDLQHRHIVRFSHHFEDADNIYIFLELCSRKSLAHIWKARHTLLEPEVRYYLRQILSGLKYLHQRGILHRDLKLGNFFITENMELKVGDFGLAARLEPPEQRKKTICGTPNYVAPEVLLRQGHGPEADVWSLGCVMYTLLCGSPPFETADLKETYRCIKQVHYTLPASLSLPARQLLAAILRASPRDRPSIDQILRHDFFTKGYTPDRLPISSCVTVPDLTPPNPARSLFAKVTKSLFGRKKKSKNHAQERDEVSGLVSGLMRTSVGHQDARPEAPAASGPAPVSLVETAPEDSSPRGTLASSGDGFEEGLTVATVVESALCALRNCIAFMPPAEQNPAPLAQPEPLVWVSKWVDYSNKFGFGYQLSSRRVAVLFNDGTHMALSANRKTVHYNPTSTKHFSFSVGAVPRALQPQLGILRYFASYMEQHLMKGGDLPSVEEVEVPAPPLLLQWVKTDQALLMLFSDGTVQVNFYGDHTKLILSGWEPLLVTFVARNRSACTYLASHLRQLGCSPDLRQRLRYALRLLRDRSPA
Experimental for HL60: as §3
Experimental for Jurkat: as §3

Regarding `COc1ccnc2[nH]cc(-c3cc(N)nc(N)c3)c12` [meriolin 16], the IC50 in test [1] amounted to 60 nM; in [3], 80 nM; with HL60 it was 10 nM; with Jurkat it was 30 nM. In the test on Ramos cells, the “effect on cell cycle phases” value was “only a slight shift to G2 phase”. Besides, the “Selectivity Score (< 50% residual activity)” value in test [2] (0.03 µM) came to 0.140; in test [2] (0.3 µM), 0.284. For the same compound, the residual kinase activity is reported as 111 % of control at TLK2 (0.03 µM); 91 % of control on TLK2 (0.3 µM); 99 % of control on STK25 (0.03 µM); 81 % of control on STK25 (0.3 µM); 95 % of control on PLK3 (0.03 µM); 92 % of control at PLK3 (0.3 µM). In addition, the residual kinase activity on GSG2 (0.03 µM) is recorded as 2 % of control; at GSG2 (0.3 µM), 0 % of control; on MKNK2 (0.03 µM), 93 % of control; on MKNK2 (0.3 µM) it was 62 % of control; at EPHA7 (0.03 µM) it was 122 % of control; at EPHA7 (0.3 µM), 107 % of control. Besides, in the test on cyclin B1 expression, the “expression of cyclin B1” value is “reduced the expression of cyclin B1”. The “EdU incorporation (proliferation) reduced to” value in the test with HeLa cells is 10%.
With `c1ccc(CNc2cc(-c3c[nH]c4ncccc34)ccn2)cc1` [meriolin 36], the IC50 in test [1] turned out to be 200 nM; in test [3] it was 50 nM; in the test on HL60, 1230 nM; in the test on Jurkat, 1430 nM. Besides, the “effect on cell cycle phases” value in the test on Ramos cells was “only a slight shift to G2 phase”. Also, the “Selectivity Score (< 50% residual activity)” value in test [2] (0.3 µM) came to 0.397; in test [2] (3 µM), 0.752. The residual kinase activity on TLK2 (0.3 µM) was 149 % of control; at TLK2 (3 µM), 88 % of control; on STK25 (0.3 µM), 33 % of control; at STK25 (3 µM), 6 % of control; on PLK3 (0.3 µM) it was 97 % of control; on PLK3 (3 µM), 87 % of control. For the same compound, the residual kinase activity at GSG2 (0.3 µM) is 2 % of control; at GSG2 (3 µM), 0 % of control; at MKNK2 (0.3 µM) it was 16 % of control; at MKNK2 (3 µM), 3 % of control; on EPHA7 (0.3 µM), 131 % of control; at EPHA7 (3 µM), 93 % of control. In the test with cyclin B1 expression, the “expression of cyclin B1” value is “rather increased the expression of cyclin B1”. The “EdU incorporation (proliferation) reduced to” value in the test on HeLa cells is 10%.
